Our source for the MIC, CC50 and Hemolysis rate values is patent US20230321251A1, “LIPOSOME FORMULATION CONTAINING ANTIBACTERIAL AGENT” (priority 2020, published 2023).

Converted amounts (≈) assume the structure as drawn.

One may read the CC50 as the concentration at which the toxic effect on the cells reaches its halfway point. High values mean better tolerance by the cells, low ones harm at low concentration.

The subject of data set [1] is S. aureus ATCC25923. Briefly: In vitro antibacterial activity (MIC), agar plate dilution. It is filed as cell-based, Staphylococcus aureus. The note with it: Staphylococcus aureus, ATCC25923, read-out: minimum inhibitory concentration (MIC), S. aureus ATCC25923, 1000 cfu/spot. As for the experimental part:
(§1) A minimum inhibitory concentration was measured as in vitro antibacterial activity. The minimum inhibitory concentration (MIC: μg/ml) was measured according to the standard method of Japanese Society of Chemotherapy, by an agar plate dilution method using 1000 cfu/spot as an inoculum amount and a susceptibility disk medium as a test medium.
(§2) In the tables, a unit of a numerical value of inhibitory activity is μg/ml. In addition, in the tables, S. aureus represents Staphylococcus aureus and E. faecalis represents Gram-positive group D streptococci (enterococci) that are resident in a normal bacterial flora of a human intestinal tract, and can be causative bacteria of endocarditis and the like after surgery.

The test system of data set [2] is S. aureus ATCC700787. The description is as above. It is filed as cell-based, Staphylococcus aureus. The note with it: Staphylococcus aureus, ATCC700787, read-out: minimum inhibitory concentration (MIC). As for the experimental part:
as §1, §2

The subject of data set [3] is S. aureus VRS1. Described as above. It is filed as cell-based, Staphylococcus aureus. The note with it: Staphylococcus aureus, VRS1, read-out: minimum inhibitory concentration (MIC), S. aureus VRS1, 1000 cfu/spot. As for the experimental part: as §1, §2
The test system of data set [4] is E. faecalis SR1004. The description is as above. It is filed as cell-based. The following applies: Enterococcus faecalis, SR1004, read-out: minimum inhibitory concentration (MIC), E. faecalis SR1004, 1000 cfu/spot. Here is the method: as §1, §2
Data set [5] has as its system E. faecalis SR7914. The description is as above. It is filed as cell-based. The note with it: Enterococcus faecalis, SR7914, read-out: minimum inhibitory concentration (MIC), E. faecalis SR7914, 1000 cfu/spot. Here is the method:
as §1, §2

For data set [6], the system named is E. faecium SR7940. The description is as above. The following applies: Enterococcus faecium, SR7940, read-out: minimum inhibitory concentration (MIC), E. faecium SR7940, 1000 cfu/spot. It is filed as cell-based. As for the experimental part:
as §1, §2

Data set [7] has as its system E. faecium SRM1101. Described as above. It counts as cell-based. The note with it: Enterococcus faecium, SRM1101, read-out: minimum inhibitory concentration (MIC). As for the experimental part: as §1, §2
For data set [8], the system named is S. aureus SR3637. The description is as above. It is filed as cell-based. The following applies: Staphylococcus aureus, SR3637, read-out: minimum inhibitory concentration (MIC), S. aureus SR3637, 1000 cfu/spot. As for the experimental part: as §1, §2
Data set [9] in a line: In vitro cytotoxicity test (resazurin). It is filed as cell-based. The note with it: African green monkey, Vero cells, 72 hours culture. As for the experimental part:
Vero cells (final concentration: 2.0×10 to the power of 4 cells/well) cultured in advance and each test substance were added to 96 wells, and cultured for 72 hours under conditions of 5% CO2 and 37° C. Thereafter, 10 μl/well of a 0.01% resazurin solution was added, and after mixing, the cells were cultured under conditions of 5% CO2 and 37° C. for 4 hours, and then a fluorescence value (Ex 531 nm/Em 590 nm) was measured using a microplate reader.

Data set [10] concerns 2% red blood cell suspension (defibrated sheep blood). Briefly: In vitro hemolysis test. It counts as cell-based. The note with it: sheep red blood cells, 24 hours incubation. Here is the method: Hemolysis rates of the compound A drug substance and the liposome formulation of Example 2 were evaluated by the following methods.
A 10 mM concentration solution of each test substance was prepared using a 5% sugar solution as a solvent, and 12 types of formulation solutions were prepared for each test substance up to 0.0049 mM by 2-fold serial dilution. Using 20% FBS-supplemented M-199 medium (With Earle's salts, sodium bicarbonate and 25 mM HEPES, supplement with 0.1 g/L L-glutamine) as a medium, a 2% red blood cell suspension (defibrated sheep blood) was prepared and mixed with a solvent or each test substance formulation solution (n=2). […] A mixed solution of the solvent or each test substance formulation solution and the red blood cell suspension or the medium was incubated for 24 hours, then the supernatant was collected, and an absorbance at 540 nm was measured. At the stage of completion of each incubation, an absorbance of the solvent and the red blood cell suspension, and an absorbance of the solvent and the medium were set to a reference of “hemolysis rate 0%”, and an absorbance of the 100% hemolysis solution was set to a reference of “100% hemolysis”, and a hemolysis rate by mixing and incubating each test substance formulation solution and the red blood cell suspension was calculated by the following calculation formula. […]

Regarding `CN[C@H](CC(C)C)C(=O)NC1C(=O)N[C@@H](CC(N)=O)C(=O)N[C@H]2C(=O)N[C@H]3C(=O)N[C@H](C(=O)N[C@@H](C(=O)O)c4cc(O)cc(O)c4-c4cc3ccc4O)[C@H](O[C@H]3C[C@](C)(N)[C@@H](O)[C@H](C)O3)c3ccc(c(Cl)c3)Oc3cc2cc(c3O[C@@H]2O[C@H](CO)[C@@H](O[C@@H]3O[C@H](CNCc4ccc(-c5ccc(Cl)cc5)s4)[C@H](O)[C@H](O)[C@H]3O)[C@H](O)[C@H]2O)Oc2ccc(cc2Cl)[C@H]1O` (stereo partly shown) [Compound A drug substance], the MIC amounted to 1 µg/mL (≈ 0.55 µM) in [1]; 2 µg/mL (≈ 1.1 µM) in data set [2]; 4 µg/mL (≈ 2.2 µM) in data set [3]; 0.5 µg/mL (≈ 0.275 µM) in [4]; 2 µg/mL (≈ 1.1 µM) in data set [5]; 2 µg/mL (≈ 1.1 µM) in [6]. In addition, the MIC amounted to 2 µg/mL (≈ 1.1 µM) in data set [7] and 1 µg/mL (≈ 0.55 µM) in data set [8]. Further, in data set [9], the half-maximal cytotoxic concentration (CC50) at 72 h was 128 µg/mL (≈ 70.4 µM). The molecule further gave a Hemolysis rate in data set [10] of 34%.
